ChEMBL document CHEMBL4138286, “ent-Jungermannenone C Triggers Reactive Oxygen Species-Dependent Cell Differentiation in Leukemia Cells” (J Nat Prod, 2018)
Calls of active or inactive are those of the source. The calls are words filed in the database; no cut-off is given here.

Key:
[1] = Cytotoxicity against human NB4-LR2 cells assessed as reduction in cell viability after 24 hrs by CellTiter-Glo assay; assay type: functional, cell-based
[2] = system: NB-4; assay: Cytotoxicity against human NB4 cells assessed as reduction in cell viability after 24 hrs by CellTiter-Glo assay; assay type: functional, cell-based; settings: NB-4, 24 h
[3] = system: Ramos; assay: Cytotoxicity against human Ramos cells assessed as reduction in cell viability after 24 hrs by CellTiter-Glo assay; assay type: functional, cell-based
[4] = system: SUD4; assay: Cytotoxicity against human SUDHL4 cells assessed as reduction in cell viability after 24 hrs by CellTiter-Glo assay; assay type: functional, cell-based; settings: SU-DHL-4, 24 h
[5] = system: NB-4; assay: Induction of cell differentiation in human NB4 cells at 3 uM after 6 days by light microscopy based NBT reduction assay; assay type: functional
[6] = system: OCI-Ly10; assay: Cytotoxicity against human OCI-LY10 cells assessed as reduction in cell viability after 24 hrs by CellTiter-Glo assay; assay type: functional, cell-based; settings: OCI-Ly10, 24 h
[7] = system: HL-60; assay: Cytotoxicity against human HL60 cells assessed as reduction in cell viability after 24 hrs by CellTiter-Glo assay; assay type: functional, cell-based; settings: HL-60, 24 h
[8] = Cytotoxicity against human OCI-Ly8 cells assessed as reduction in cell viability after 24 hrs by CellTiter-Glo assay; assay type: functional, cell-based; settings: OCI-Ly8, 24 h
[9] = system: PBMC; assay: Cytotoxicity against PBMC (unknown origin) assessed as reduction in cell viability at 1 to 20 uM after 24 hrs by trypan blue exclusion assay; assay type: cell-based
[10] = Cytotoxicity against PBMC (unknown origin) assessed as cell viability at 20 uM after 24 hrs by trypan blue exclusion assay relative to control; assay type: cell-based; settings: read-out: Activity
[11] = system: SU-DHL-2; assay: Cytotoxicity against human SU-DHL-2 cells assessed as reduction in cell viability after 24 hrs by CellTiter-Glo assay; assay type: functional, cell-based; settings: SU-DHL-2, 24 h
[12] = system: U-937; assay: Induction of cell differentiation in human U937 cells assessed as CD11b+ expression at 4 uM after 24 hrs by flow cytometry (reference value: 13.46%); assay type: functional
[13] = system: NB-4; assay: Induction of cell differentiation in human NB4 cells assessed as CD11b positive cells at 3 uM after 6 days by flow cytometry (reference value: 7.25 +/- 1.18%); assay type: functional
[14] = system: NB-4; assay: Induction of cell differentiation in human NB4 cells assessed as CD11b+ expression at 3 uM pretreated with NAC for 4 hrs followed by compound addition measured after 6 days by flow cytometry (reference value: 4.58 +/- 1.53%); assay type: functional
[15] = target: T1, Peroxiredoxin-1 (Homo sapiens) (UniProt Q06830); assay: Binding affinity to wild type recombinant human N-terminal 6His-tagged peroxiredoxin-1 expressed in Escherichia coli BL21 after 1 hr by LC-MS/MS analysis
T1 sequence (whole entry): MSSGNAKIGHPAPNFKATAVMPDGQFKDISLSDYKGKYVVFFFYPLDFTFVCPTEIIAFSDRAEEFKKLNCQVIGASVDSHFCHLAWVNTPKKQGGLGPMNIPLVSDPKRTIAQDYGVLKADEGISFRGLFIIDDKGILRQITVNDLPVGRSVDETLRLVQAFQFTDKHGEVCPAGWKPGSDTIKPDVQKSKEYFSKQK

[16] = system: NB-4; assay: Induction of ROS accumulation in human NB4 cells at 3 uM by CM-H2DCFDA probe based flow cytometry; assay type: functional, cell-based
[17] = target: T1, Peroxiredoxin-1 (Homo sapiens); assay: Binding affinity to wild type recombinant human N-terminal 6His-tagged peroxiredoxin-1 expressed in Escherichia coli BL21 up to 200 uM by immunoblot analysis
[18] = Induction of cell differentiation in human NB4-LR2 cells assessed as CD11b+ expression at 4 uM after 24 hrs by flow cytometry (reference value: 6.36%); assay type: functional
[19] = target: T2, Peroxiredoxin-2 (Homo sapiens) (UniProt P32119); assay: Binding affinity to wild type recombinant human N-terminal 6His-tagged peroxiredoxin-2 expressed in Escherichia coli BL21 after 1 hr by LC-MS/MS analysis
T2 sequence (whole entry): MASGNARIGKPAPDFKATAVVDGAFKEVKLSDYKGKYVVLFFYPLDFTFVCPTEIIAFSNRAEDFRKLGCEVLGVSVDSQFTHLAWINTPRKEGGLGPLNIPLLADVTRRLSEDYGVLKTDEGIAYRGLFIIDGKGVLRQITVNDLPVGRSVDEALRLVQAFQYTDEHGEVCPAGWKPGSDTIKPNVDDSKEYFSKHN

[20] = system: NB-4; assay: Induction of cell differentiation in human NB4 cells assessed as CD11b+ expression at 3 uM measured after 6 days by flow cytometry (reference value: 4.58 +/- 1.53%); assay type: functional
[21] = system: A549; assay: Cytotoxicity against human A549 cells assessed as reduction in cell viability after 24 hrs by CellTiter-Glo assay; assay type: functional, cell-based
[22] = Potentiation of ATRA-induced cell differentiation in human MR2 cells assessed as CD11b+ expression at 2 uM after 3 days by flow cytometry (reference value: 24.5%); assay type: functional
[23] = system: NB-4; assay: Induction of cell differentiation in human NB4 cells assessed as reduction in nucleus/cytoplasm ratio at 3 uM after 6 days by Wright-Giemsa staining based assay; assay type: functional
[24] = Induction of cell differentiation in human MR2 cells assessed as CD11b+ expression at 2 uM after 3 days by flow cytometry (reference value: 4.3%); assay type: functional
[25] = Potentiation of ATRA-induced cell differentiation in human NB4-LR2 cells assessed as CD11b+ expression at 2 uM after 3 days by flow cytometry (reference value: 28.8%); assay type: functional
[26] = system: NB-4; assay: Induction of cell differentiation in human NB4 cells assessed as CD11b+ expression at 3 uM after 3 days by flow cytometry (reference value: 7.5%); assay type: functional
[27] = system: NB-4; assay: Potentiation of ATRA-induced cell differentiation in human NB4 cells assessed as CD11b+ expression at 3 uM after 3 days by flow cytometry (reference value: 56.1%); assay type: functional
[28] = system: NB-4; assay: Cytotoxicity against human NB4 cells assessed as reduction in cell viability pretreated with NAC for 4 hrs followed by compound addition measured after 24 hrs by trypan blue assay; assay type: functional, cell-based
[29] = system: NB-4; assay: Cytotoxicity against human NB4 cells assessed as reduction in cell viability at 3 uM measured up to 72 hrs by trypan blue exclusion assay; assay type: functional, cell-based
[30] = Induction of cell differentiation in human NB4-LR2 cells assessed as CD11b+ expression at 2 uM after 3 days by flow cytometry (reference value: 13.3%); assay type: functional

Q: With `C=C1C(=O)[C@@H]2C3=C(CC[C@@H]4C(C)(C)CCC[C@@]34C)C[C@H]1[C@@H]2O` as the compound, how does the IC50 [1] read?
A: 3.1 µM

Q: And the IC50 [2]?
A: 4.7 µM

Q: What about the IC50 [3] of the same compound?
A: 5.1 µM

Q: What about the IC50 [4] of the same compound?
A: 4.8 µM

Q: And the Activity [5]?
A: 17%

Q: What about the IC50 [6] of the same compound?
A: 8.4 µM

Q: What about the IC50 [7] of the same compound?
A: 3.1 µM

Q: Which results are given for `C=C1C(=O)C2C3=C(CCC4C(C)(C)CCCC34C)CC1C2O` (racemic)?
A: IC50 [8]: < 5 µM; Activity [9]: Non-Toxic; viability at 24 h, 20 µM [10]: 80%; IC50 [11]: < 5 µM

Q: What does the source list for `C=C1C(=O)[C@H]2C3=C(CC[C@H]4C(C)(C)CCC[C@]34C)C[C@@H]1[C@H]2O`?
A: Activity [12]: 33.13%; Activity [13]: 40.7%; Activity [14]: 13.2%; Activity [15]: Active; Activity [16]: Active; Activity [17]: Active; Activity [18]: 21.4%; IC50 [1]: 1.6 µM; Activity [19]: Active; IC50 [2]: 1.8 µM; IC50 [3]: 1.9 µM; Activity [20]: 44.97%; IC50 [4]: 1.3 µM; Activity [21]: Active; Activity [22]: 32.6%; Activity [5]: 40%; Activity [23]: Active; Activity [24]: 4.9%; Activity [25]: 49.5%; Activity [26]: 16.4%; IC50 [6]: 3.7 µM; Activity [27]: 80.6%; IC50 [7]: 1.8 µM; Activity [28]: inactive; Activity [29]: inactive; Activity [30]: 29.4%
